# Measured values published in patent US12540143B2, “Methods and compositions for targeted protein degradation” (Ranok Therapeutics (Hangzhou) Co. Ltd., priority 2019, dated 2026).
# Structures can show the parent of a compound that is named as a salt.
# Tested on: MV4-11 cells
# Experiment: MV4-11 Cytotoxicity Assay
# Type: cell-based, human
# Settings: Homo sapiens, MV4-11; 72 hr, CCK-8; read-out: MV4-11 cytotoxicity
row,SMILES,IC50 [nM]
1,"Cc1sc2c(c1C)C(c1ccc(Cl)cc1)=N[C@@H](CC(=O)N1CCC(CN3CCN(Cc4ccc(-n5c(C(=O)NC(C)C)nnc5-c5cc(C(C)C)c(O)cc5O)cc4)CC3)CC1)c1nnc(C)n1-2 [Compound 108, (S)-4-(4-((4-((1-(2-(4-(4-chlorophenyl)-2,3,9-trimethyl-6H-thieno[3,2-f][1,2,4]triazolo[4,3-a][1,4]diazepin-6-yl)acetyl)piperidin-4-yl)methyl)piperazin-1-yl)methyl)phenyl)-5-(2,4-dihydroxy-5-isopropylphenyl)-N-isopropyl-4H-1,2,4-triazole-3-carboxamide, trifluoroacetic acid]",100 to 1000
2,"CCc1cc(-c2nnc(O)n2-c2ccc(CNC(=O)C[C@@H]3N=C(c4ccc(Cl)cc4)c4c(sc(C)c4C)-n4c(C)nnc43)cc2)c(O)cc1O [Compound 56, 2-((6S)-4-(4-chlorophenyl)-2,3,9-trimethyl-6H-thieno[3,2-f][1,2,4]triazolo[4,3-a][1,4]diazepin-6-yl)-N-(4-(3-(5-ethyl-2,4-dihydroxyphenyl)-5-hydroxy-4H-1,2,4-triazol-4-yl)benzyl)acetamide]",100 to 1000
3,"Cc1sc2c(c1C)C(c1ccc(Cl)cc1)=N[C@@H](CC(=O)NCC(=O)NCC1CN(C(=O)C3CCN(Cc4ccc(-n5c(O)nnc5-c5cc(C(C)C)c(O)cc5O)cc4)CC3)C1)c1nnc(C)n1-2 [Compound 60, 2-((6S)-4-(4-chlorophenyl)-2,3,9-trimethyl-6H-thieno[3,2-f][1,2,4]triazolo[4,3-a][1,4]diazepin-6-yl)-N-(2-(((1-(1-(4-(3-(2,4-dihydroxy-5-isopropylphenyl)-5-hydroxy-4H-1,2,4-triazol-4-yl)benzyl)piperidine-4-carbonyl)azetidin-3-yl)methyl)amino)-2-oxoethyl)acetamide, trifluoroacetic acid]",< 100
4,"Cc1sc2c(c1C)C(c1ccc(Cl)cc1)=NC(CC(=O)N1CCC(Cc3ccc(CN(C)Cc4ccc(-n5c(C(=O)NCC(F)(F)F)nnc5-c5cc(C(C)C)c(O)cc5O)cc4)cc3)CC1)c1nnc(C)n1-2 (stereo in doubt) [Compound 84, (S)-4-(4-(((4-((1-(2-(4-(4-chlorophenyl)-2,3,9-trimethyl-6H-thieno[3,2-f][1,2,4]triazolo[4,3-a][1,4]diazepin-6-yl)acetyl)piperidin-4-yl)methyl)benzyl)(methyl)amino)methyl)phenyl)-5-(2,4-dihydroxy-5-isopropylphenyl)-N-(2,2,2-trifluoroethyl)-4H-1,2,4-triazole-3-carboxamide, trifluoroacetic acid]",< 100
5,"Cc1sc2c(c1C)C(c1ccc(Cl)cc1)=N[C@@H](CC(=O)N1CCC(CN3CCN(Cc4ccc(-n5c(S)nnc5-c5cc(C(C)C)c(O)cc5O)cc4)CC3)CC1)c1nnc(C)n1-2 [Compound 12, 2-((6S)-4-(4-chlorophenyl)-2,3,9-trimethyl-6H-thieno[3,2-f][1,2,4]triazolo[4,3-a][1,4]diazepin-6-yl)-1-(4-((4-(4-(3-(2,4-dihydroxy-5-isopropylphenyl)-5-mercapto-4H-1,2,4-triazol-4-yl)benzyl)piperazin-1-yl)methyl)piperidin-1-yl)ethanone, trifluoroacetic acid]",< 100
6,"Cc1cc(-c2nnc(C(=O)NCCN3CCCCC3)n2-c2ccc(CN3CCN(CC4CCN(C(=O)C[C@@H]5N=C(c6ccc(Cl)cc6)c6c(sc(C)c6C)-n6c(C)nnc65)CC4)CC3)cc2)c(O)cc1O [Compound 124, (S)-4-(4-((4-((1-(2-(4-(4-chlorophenyl)-2,3,9-trimethyl-6H-thieno[3,2-f][1,2,4]triazolo[4,3-a][1,4]diazepin-6-yl)acetyl)piperidin-4-yl)methyl)piperazin-1-yl)methyl)phenyl)-5-(2,4-dihydroxy-5-methylphenyl)-N-(2-(piperidin-1-yl)ethyl)-4H-1,2,4-triazole-3-carboxamide, trifluoroacetic acid]",< 100
7,"CCc1cc(-c2nnc(O)n2-c2ccc(CN3CCN(CC4CCN(C(=O)C[C@@H]5N=C(c6ccc(Cl)cc6)c6c(sc(C)c6C)-n6c(C)nnc65)CC4)CC3)cc2)c(O)cc1O [Compound 10, (S)-2-(4-(4-chlorophenyl)-2,3,9-trimethyl-6H-thieno[3,2-f][1,2,4]triazolo[4,3-a][1,4]diazepin-6-yl)-1-(4-((4-(4-(3-(5-ethyl-2,4-dihydroxyphenyl)-5-hydroxy-4H-1,2,4-triazol-4-yl)benzyl)piperazin-1-yl)methyl)piperidin-1-yl)ethan-1-one hydrochloride]",< 100
8,"Cc1sc2c(c1C)C(c1ccc(Cl)cc1)=N[C@@H](CCNCCOCCOc1ccc(-n3c(O)nnc3-c3cc(C(C)C)c(O)cc3O)cc1)c1nnc(C)n1-2 [Compound 63, (S)-4-(4-(4-(2-(2-((2-(4-(4-chlorophenyl)-2,3,9-trimethyl-6H-thieno[3,2-f][1,2,4]triazolo[4,3-a][1,4]diazepin-6-yl)ethyl)amino)ethoxy)ethoxy)phenyl)-5-hydroxy-4H-1,2,4-triazol-3-yl)-6-isopropylbenzene-1,3-diol, trifluoroacetic acid]",100 to 1000
9,"CCN(CC)CCNC(=O)c1nnc(-c2ccc(O)cc2O)n1-c1ccc(CN2CCN(CC3CCN(C(=O)C[C@@H]4N=C(c5ccc(Cl)cc5)c5c(sc(C)c5C)-n5c(C)nnc54)CC3)CC2)cc1 [Compound 111, (S)-4-(4-((4-((1-(2-(4-(4-chlorophenyl)-2,3,9-trimethyl-6H-thieno[3,2-f][1,2,4]triazolo[4,3-a][1,4]diazepin-6-yl)acetyl)piperidin-4-yl)methyl)piperazin-1-yl)methyl)phenyl)-N-(2-(diethylamino)ethyl)-5-(2,4-dihydroxyphenyl)-4H-1,2,4-triazole-3-carboxamide, trifluoroacetic acid]",< 100
10,"Cc1sc2c(c1C)C(c1ccc(Cl)cc1)=N[C@@H](CC(=O)N[C@H](C)c1cccc(CN3CCC(Cc4ccc(-n5c(O)nnc5-c5cc(C(C)C)c(O)cc5O)cc4)CC3)c1)c1nnc(C)n1-2 [Compound 81, 2-((S)-4-(4-chlorophenyl)-2,3,9-trimethyl-6H-thieno[3,2-f][1,2,4]triazolo[4,3-a][1,4]diazepin-6-yl)-N—((R)-1-(3-((4-(4-(3-(2,4-dihydroxy-5-isopropylphenyl)-5-hydroxy-4H-1,2,4-triazol-4-yl)benzyl)piperidin-1-yl)methyl)phenyl)ethyl)acetamide, trifluoroacetic acid]",< 100
11,"Cc1sc2c(c1C)C(c1ccc(Cl)cc1)=N[C@@H](CC(=O)NCC(=O)NCCOCCOc1ccc(-n3c(O)nnc3-c3cc(C(C)C)c(O)cc3O)cc1)c1nnc(C)n1-2 [Compound 55, (S)-2-(4-(4-chlorophenyl)-2,3,9-trimethyl-6H-thieno[3,2-f][1,2,4]triazolo[4,3-a][1,4]diazepin-6-yl)-N-(2-((2-(2-(4-(3-(2,4-dihydroxy-5-isopropylphenyl)-5-hydroxy-4H-1,2,4-triazol-4-yl)phenoxy)ethoxy)ethyl)amino)-2-oxoethyl)acetamide]",100 to 1000
12,"Cc1sc2c(c1C)C(c1ccc(Cl)cc1)=N[C@@H](CC(=O)N1CCC(CN3CCN(Cc4ccc(-n5c(C(N)=O)nnc5-c5cc(C(C)C)c(O)cc5O)cc4)CC3)CC1)c1nnc(C)n1-2 [Compound 109, (S)-4-(4-((4-((1-(2-(4-(4-chlorophenyl)-2,3,9-trimethyl-6H-thieno[3,2-f][1,2,4]triazolo[4,3-a][1,4]diazepin-6-yl)acetyl)piperidin-4-yl)methyl)piperazin-1-yl)methyl)phenyl)-5-(2,4-dihydroxy-5-isopropylphenyl)-4H-1,2,4-triazole-3-carboxamide, trifluoroacetic acid]",< 100
13,"Cc1sc2c(c1C)C(c1ccc(Cl)cc1)=N[C@@H](CC(=O)N[C@H](C)c1cccc(CN3CCC(Cc4ccc(-n5c(C(=O)NCC(F)(F)F)nnc5-c5cc(C(C)C)c(O)cc5O)cc4)CC3)c1)c1nnc(C)n1-2 [Compound 97, 4-(4-((1-(3-((R)-1-(2-((S)-4-(4-chlorophenyl)-2,3,9-trimethyl-6H-thieno[3,2-f][1,2,4]triazolo[4,3-a][1,4]diazepin-6-yl)acetamido)ethyl)benzyl)piperidin-4-yl)methyl)phenyl)-5-(2,4-dihydroxy-5-isopropylphenyl)-N-(2,2,2-trifluoroethyl)-4H-1,2,4-triazole-3-carboxamide, trifluoroacetic acid]",< 100
14,"CCc1cc(-c2nnc(O)n2-c2ccc(CN3CCN(CC4CCN(CC[C@@H]5N=C(c6ccc(Cl)cc6)c6c(sc(C)c6C)-n6c(C)nnc65)CC4)CC3)cc2)c(O)cc1O [Compound 2, 4-(4-(4-((4-((1-(2-((6S)-4-(4-chlorophenyl)-2,3,9-trimethyl-6H-thieno[3,2-f][1,2,4]triazolo[4,3-a][1,4]diazepin-6-yl)ethyl)piperidin-4-yl)methyl)piperazin-1-yl)methyl)phenyl)-5-hydroxy-4H-1,2,4-triazol-3-yl)-6-ethylbenzene-1,3-diol, trifluoroacetic acid]",100 to 1000
15,"Cc1sc2c(c1C)C(c1ccc(Cl)cc1)=N[C@@H](CC(=O)N1CCC(CN3CCN(Cc4ccc(-n5c(C(=O)NCCN6CCCCC6)nnc5-c5cc(C(C)C)c(O)cc5O)cc4)CC3)CC1)c1nnc(C)n1-2 [Compound 107, (S)-4-(4-((4-((1-(2-(4-(4-chlorophenyl)-2,3,9-trimethyl-6H-thieno[3,2-f][1,2,4]triazolo[4,3-a][1,4]diazepin-6-yl)acetyl)piperidin-4-yl)methyl)piperazin-1-yl)methyl)phenyl)-5-(2,4-dihydroxy-5-isopropylphenyl)-N-(2-(piperidin-1-yl)ethyl)-4H-1,2,4-triazole-3-carboxamide, trifluoroacetic acid]",< 100
16,"Cc1sc2c(c1C)C(c1ccc(Cl)cc1)=N[C@@H](CC(=O)N1CCC(Cc3ccc(-n4c(O)nnc4-c4cc(C(C)C)c(O)cc4O)cc3)CC1)c1nnc(C)n1-2 [Compound 3, 2-((6S)-4-(4-chlorophenyl)-2,3,9-trimethyl-6H-thieno[3,2-f][1,2,4]triazolo[4,3-a][1,4]diazepin-6-yl)-1-(4-(4-(3-(2,4-dihydroxy-5-isopropylphenyl)-5-hydroxy-4H-1,2,4-triazol-4-yl)benzyl)piperidin-1-yl)ethanone, trifluoroacetic acid]",< 100
